The results in this text go back to patent publication US20140249135A1, “PIM KINASE INHIBITORS AND METHODS OF THEIR USE” (NOVARTIS AG, priority 2007, published 2014).

Where two headings read alike, the source gives them in different places.

By IC50 is commonly meant the concentration needed to halve the response being measured. A word on the EC50: it is the concentration that produces a half-maximal response.

The target in one experiment is Pim1 kinase (Homo sapiens, UniProt P11309). Briefly: Pim1 ATP depletion assay.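 Note: Luciferase-luciferin luminescence readout of residual ATP after PIM1 transfers phosphate to a peptide substrate, 40 µM ATP added, reaction run to roughly half ATP consumption.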 Format: biochemical. The following applies: Pim1 ATP depletion assay; read-out: IC50 (μM) PIM1.
In another experiment the target is Pim3 kinase (Homo sapiens, UniProt Q86V86). Briefly: Pim3 ATP depletion assay. Format: biochemical. The following applies: read-out: IC50 (μM) PIM3.
A further experiment concerns the target Pim2 kinase (Homo sapiens, UniProt Q9P1W9). Briefly: Pim2 ATP depletion assay.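 Note: Luciferase-based luminescent readout of ATP remaining after PIM2 phosphorylates a BAD peptide, final 5 nM enzyme, 4 µM ATP, 10 µM peptide, 2.5% DMSO, run to roughly half ATP consumption.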 Format: biochemical. The following applies: read-out: IC50 (μM) PIM2.
For experiment [1], the target named is T1, human full length PKCE enzyme (Homo sapiens, UniProt Q02156).
T1 construct: human full length PKCE enzyme purchased from InVitrogen; purchased InVitrogen
T1 sequence (Q02156 1-737): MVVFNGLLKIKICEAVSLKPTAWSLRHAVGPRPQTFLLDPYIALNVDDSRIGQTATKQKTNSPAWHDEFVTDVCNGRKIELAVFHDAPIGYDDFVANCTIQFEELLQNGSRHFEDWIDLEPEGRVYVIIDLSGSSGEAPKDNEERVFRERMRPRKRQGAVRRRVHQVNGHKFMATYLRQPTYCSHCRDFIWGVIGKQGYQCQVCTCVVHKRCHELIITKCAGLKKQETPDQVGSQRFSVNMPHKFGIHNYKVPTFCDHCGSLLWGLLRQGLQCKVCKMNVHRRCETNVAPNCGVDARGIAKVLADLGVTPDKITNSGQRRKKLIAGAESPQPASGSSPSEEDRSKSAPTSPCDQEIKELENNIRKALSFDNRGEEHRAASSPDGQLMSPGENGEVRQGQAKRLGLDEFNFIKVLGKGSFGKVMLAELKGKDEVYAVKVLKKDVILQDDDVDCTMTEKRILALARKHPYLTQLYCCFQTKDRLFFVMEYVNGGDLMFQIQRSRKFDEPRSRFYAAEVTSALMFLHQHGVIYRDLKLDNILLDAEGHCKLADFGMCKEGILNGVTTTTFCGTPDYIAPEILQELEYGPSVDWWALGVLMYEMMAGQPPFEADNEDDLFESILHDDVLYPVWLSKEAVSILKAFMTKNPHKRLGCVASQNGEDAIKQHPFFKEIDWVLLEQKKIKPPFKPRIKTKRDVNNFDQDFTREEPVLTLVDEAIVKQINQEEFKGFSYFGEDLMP
In words: In vitro PKCE assay. Format: biochemical. The following applies: 10 nM enzyme, 40 uM peptide substrate, 20 uM ATP, KinaseGlo Plus readout; read-out: PKCε IC50. A general note: Kinase-Glo measures the ATP left after a reaction by luminescence.

The target in a further experiment is T2, Flt3 kinase (Homo sapiens, UniProt P36888).
T2 sequence (P36888 27-993): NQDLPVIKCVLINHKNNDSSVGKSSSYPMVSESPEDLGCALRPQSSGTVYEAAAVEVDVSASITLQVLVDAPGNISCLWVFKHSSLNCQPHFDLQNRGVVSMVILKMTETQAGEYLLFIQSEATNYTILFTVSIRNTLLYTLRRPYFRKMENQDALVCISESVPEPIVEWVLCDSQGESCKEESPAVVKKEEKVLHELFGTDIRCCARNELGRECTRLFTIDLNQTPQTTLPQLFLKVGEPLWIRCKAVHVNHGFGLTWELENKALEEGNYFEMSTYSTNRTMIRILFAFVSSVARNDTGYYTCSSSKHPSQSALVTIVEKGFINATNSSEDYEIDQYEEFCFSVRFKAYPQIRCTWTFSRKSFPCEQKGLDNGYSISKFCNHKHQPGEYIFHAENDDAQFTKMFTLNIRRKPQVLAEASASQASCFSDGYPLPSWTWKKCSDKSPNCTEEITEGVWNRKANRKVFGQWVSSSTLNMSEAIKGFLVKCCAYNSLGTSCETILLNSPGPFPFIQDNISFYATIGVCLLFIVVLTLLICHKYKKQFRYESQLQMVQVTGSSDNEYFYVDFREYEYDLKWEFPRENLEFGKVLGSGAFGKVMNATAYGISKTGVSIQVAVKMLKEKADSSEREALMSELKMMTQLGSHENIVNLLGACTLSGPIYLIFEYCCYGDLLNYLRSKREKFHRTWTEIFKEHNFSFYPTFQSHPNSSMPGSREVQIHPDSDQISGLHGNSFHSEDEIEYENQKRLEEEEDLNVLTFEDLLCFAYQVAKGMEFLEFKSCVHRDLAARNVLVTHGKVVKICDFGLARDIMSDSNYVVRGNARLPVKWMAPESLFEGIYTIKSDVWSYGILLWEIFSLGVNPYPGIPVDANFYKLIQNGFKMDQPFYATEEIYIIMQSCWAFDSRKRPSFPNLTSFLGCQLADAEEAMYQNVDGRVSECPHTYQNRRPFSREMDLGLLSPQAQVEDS
Briefly: Flt3 AlphaScreen assay. In general terms: In Alpha technology, singlet oxygen from a donor bead excites a nearby acceptor bead.

The subject of a further experiment is PC3 cells. In words: Cell proliferation assay (CellTiter-Glo), PC3. Format: cell-based. The following applies: Homo sapiens, PC-3. The procedure, abridged:
(§1)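 CellTiter-Glo luminescence was read after 3-day compound exposure at 37 °C of cells plated at 1000/well in RPMI1640 with 10% FBS. Signal was normalised between DMSO-treated and control-compound-treated wells. EC50 is the concentration giving 50% of maximal effect.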

In a further experiment the test system is HEL 92.1.7 cells. Briefly: Cell proliferation assay (CellTiter-Glo), HEL 92.1.7. The following applies: Homo sapiens, read-out: EC50 (μM) HEL 92.1.7. Format: cell-based. The gist of the method:
as §1
(In ATP-based viability assays light output follows the ATP content of the culture.)

In the next experiment the target is KDR kinase (Homo sapiens, UniProt P35968). In words: KDR AlphaScreen assay. The following applies: KDR IC50 (μM).
A further experiment relates to MV4-11 cells. In words: Cell proliferation assay (CellTiter-Glo), MV4-11. The following applies: Homo sapiens. Format: cell-based. The procedure:
HEL 92.1.7 cells (ATTC No. TIB-180, an erythroleukemia line derived from malignant peripheral blood), MV4-11 cells (ATCC No. CRL-9591, a human acute monocytic leukemia line) and PC3 cells (ATCC No. CRL-1435, a human prostatic adenocarcinoma line) were cultured in RPMI1640 supplemented with 10% FBS, sodium pyruvate and antibiotics. Cells were plated in the same medium at a density of 1000 cells per well into 96 well tissue culture plates, with outside wells vacant, on the day of assay. Test compounds supplied in DMSO were diluted into DMSO at 500 times the desired final concentrations before dilution into culture media to 2 times final concentrations. Equal volumes of 2× compounds were added to the cells in 96 well plates and incubated at 37° C. for 3 days. After 3 days plates were equilibrated to room temperature and equal volume of CellTiter-Glow Reagent (Promega) was added to the culture wells. The plates were agitated briefly and luminescent signal was measured with luminometer.

Experiment [2] deals with KMS 11 (human myeloma cell line). In words: Cell proliferation assay (CellTiter-Glo), KMS 11. Format: cell-based. The following applies: KMS11 cells, read-out: EC50 (μM) KMS11. As to the method: (§2) KMS 11 (human myeloma cell line), were cultured in IMDM supplemented with 10% FBS, sodium pyruvate and antibiotics. Cells were plated in the same medium at a density of 2000 cells per well into 96 well tissue culture plates, with outside wells vacant, on the day of assay. MM1.s (human myeloma cell line), were cultured in RPMI1640 supplemented with 10% FBS, sodium pyruvate and antibiotics. Cells were plated in the same medium at a density of 5000 cells per well into 96 well tissue culture plates, with outside wells vacant, on the day of assay.
(§3) Test compounds supplied in DMSO were diluted into DMSO at 500 times the desired final concentrations before dilution into culture media to 2 times final concentrations. Equal volumes of 2× compounds were added to the cells in 96 well plates and incubated at 37° C. for 3 days.
(§4) After 3 days plates were equilibrated to room temperature and equal volume of CellTiter-Glow Reagent (Promega) was added to the culture wells. The plates were agitated briefly and luminescent signal was measured with luminometer. The percent inhibition of the signal seen in cells treated with DMSO alone vs. cells treated with control compound was calculated and used to determine EC50 values (i.e., the concentration of a test compound that is required to obtain 50% of the maximum effect in the cells) for tested compounds, as shown in Example 763.

The test system of experiment [3] is MM1.s (human myeloma cell line). Briefly: Cell proliferation assay (CellTiter-Glo), MM1.s. Format: cell-based. The following applies: MM1.s cells, read-out: EC50 (μM) MM1.s. As to the method:
as §2, §3, §4

Where [4] appears, read: cell proliferation, MV4-11 cells, read-out: EC50 (μM) MV-4-11.

Sequence of KDR kinase (P35968 20-1356): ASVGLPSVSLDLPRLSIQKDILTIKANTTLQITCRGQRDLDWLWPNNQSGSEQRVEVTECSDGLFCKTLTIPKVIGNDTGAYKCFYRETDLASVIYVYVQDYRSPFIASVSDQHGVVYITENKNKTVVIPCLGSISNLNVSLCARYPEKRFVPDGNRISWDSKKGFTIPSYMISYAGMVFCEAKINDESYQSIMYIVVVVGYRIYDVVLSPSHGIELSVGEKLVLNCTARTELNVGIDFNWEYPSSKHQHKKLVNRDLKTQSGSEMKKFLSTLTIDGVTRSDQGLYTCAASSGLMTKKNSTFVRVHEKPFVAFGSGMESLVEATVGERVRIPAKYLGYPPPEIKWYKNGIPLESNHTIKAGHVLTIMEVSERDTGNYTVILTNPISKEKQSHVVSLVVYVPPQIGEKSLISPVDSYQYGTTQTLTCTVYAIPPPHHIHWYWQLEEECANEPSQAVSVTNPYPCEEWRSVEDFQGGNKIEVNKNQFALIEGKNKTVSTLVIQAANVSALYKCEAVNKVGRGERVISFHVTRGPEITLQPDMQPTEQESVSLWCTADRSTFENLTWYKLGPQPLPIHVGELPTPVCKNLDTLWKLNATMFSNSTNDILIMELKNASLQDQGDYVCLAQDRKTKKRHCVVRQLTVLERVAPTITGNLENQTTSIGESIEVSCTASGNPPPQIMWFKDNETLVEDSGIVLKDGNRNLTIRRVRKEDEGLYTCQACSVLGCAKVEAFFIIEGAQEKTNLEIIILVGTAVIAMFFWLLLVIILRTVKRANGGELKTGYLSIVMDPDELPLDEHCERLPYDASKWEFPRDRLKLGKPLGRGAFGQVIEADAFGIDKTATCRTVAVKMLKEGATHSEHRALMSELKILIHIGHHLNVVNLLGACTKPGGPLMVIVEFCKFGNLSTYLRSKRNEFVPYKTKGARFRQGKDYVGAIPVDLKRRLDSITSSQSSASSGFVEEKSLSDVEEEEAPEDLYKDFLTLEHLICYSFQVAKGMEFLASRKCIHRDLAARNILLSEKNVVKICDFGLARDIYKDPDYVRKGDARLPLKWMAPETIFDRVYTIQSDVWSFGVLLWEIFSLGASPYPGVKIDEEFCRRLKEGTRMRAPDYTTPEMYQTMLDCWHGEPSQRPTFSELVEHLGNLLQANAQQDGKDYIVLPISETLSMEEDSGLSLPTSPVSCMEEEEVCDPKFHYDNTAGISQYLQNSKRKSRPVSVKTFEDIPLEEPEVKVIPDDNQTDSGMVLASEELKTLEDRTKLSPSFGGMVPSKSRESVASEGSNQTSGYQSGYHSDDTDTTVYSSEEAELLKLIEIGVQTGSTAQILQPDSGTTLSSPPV
Sequence of Pim1 kinase (P11309 whole entry): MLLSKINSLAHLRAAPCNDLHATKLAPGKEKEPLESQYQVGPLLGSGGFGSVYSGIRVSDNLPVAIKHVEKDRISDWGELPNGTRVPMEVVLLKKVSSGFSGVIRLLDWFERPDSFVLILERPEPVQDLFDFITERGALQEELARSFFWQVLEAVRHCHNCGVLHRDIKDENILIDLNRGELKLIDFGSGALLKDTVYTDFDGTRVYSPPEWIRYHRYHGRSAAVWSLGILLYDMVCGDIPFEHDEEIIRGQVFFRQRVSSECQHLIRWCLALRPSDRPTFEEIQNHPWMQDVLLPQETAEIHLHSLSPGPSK
Sequence of Pim2 kinase (Q9P1W9 whole entry): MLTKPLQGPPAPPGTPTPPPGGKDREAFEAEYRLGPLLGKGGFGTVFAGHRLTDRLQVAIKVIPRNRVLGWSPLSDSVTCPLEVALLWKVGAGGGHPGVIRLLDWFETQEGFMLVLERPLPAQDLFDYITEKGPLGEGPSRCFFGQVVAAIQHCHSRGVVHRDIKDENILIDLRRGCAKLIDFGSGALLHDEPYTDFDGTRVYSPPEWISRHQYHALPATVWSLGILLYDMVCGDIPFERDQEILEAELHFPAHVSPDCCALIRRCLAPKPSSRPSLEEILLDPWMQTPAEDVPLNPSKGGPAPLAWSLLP

For the compound `CN(C)CCN(C)c1ccncc1NC(=O)c1nc(Br)cnc1N` [Example 124, 3-amino-6-bromo-N-(4-{[2-(dimethylamino)ethyl]-(methyl)amino}pyridin-3-yl)pyrazine-2-carboxamide], the IC50 at Pim1 kinase is 1 to 10 µM; on Pim3 kinase, 1 to 10 µM; at Pim2 kinase it was greater than 25 µM; in [1], 10 to 25 µM; at Flt3 kinase, 10 to 25 µM.
Take `Nc1nccnc1C(=O)Nc1cnccc1N1CCCC(N)C1` (stereo not shown) [Example 187, 3-amino-N-[4-(3-aminopiperidin-1-yl)pyridin-3-yl]pyrazine-2-carboxamide]: the EC50 is 1 to 5 µM in the experiment on PC3 cells; 1 to 5 µM with HEL 92.1.7 cells; less than 1 µM with MV4-11 cells (MV4-11, read-out: EC50 (μM) MV-4-11). Moreover, the IC50 was less than 1 µM on Pim3 kinase, less than 1 µM on Pim2 kinase, greater than 25 µM on KDR kinase and less than 1 µM in experiment [1].
Take `CC(C)NC(=O)c1ccc(F)c(-c2ccc(N)c(C(=O)Nc3cnccc3N3CCC[C@H](N)C3)n2)c1` [Example 317, 3-amino-6-(2-fluoro-5-iso-propylcarbamoyl-phenyl)-pyridine-2-carboxylic acid ((S)-3-amino-3,4,5,6-tetra-hydro-2H-[1,4′]bipyridinyl-3′-yl)-amide]: the EC50 in the experiment with PC3 cells was greater than 10 µM; with HEL 92.1.7 cells, 1 to 5 µM; in [2] it was 1 to 5 µM; in experiment [3], less than 1 µM. For the same compound, the IC50 on Pim1 kinase, on Pim3 kinase and at Pim2 kinase was less than 1 µM each time.
As for `Nc1ccc(-c2c(F)cccc2F)nc1C(=O)Nc1cnccc1N1CCC[C@H](N)C1` [Example 425, 3-amino-6-(2,6-difluoro-phenyl)-pyridine-2-carboxylic acid ((S)-3-amino-3,4,5,6-tetrahydro-2H-[1,4′]bipyridinyl-3′-yl)-amide], the EC50 in the experiment on PC3 cells was 5 to 10 µM; in the experiment with HEL 92.1.7 cells, less than 1 µM; in [2], less than 1 µM; in experiment [3] it was less than 1 µM. The IC50 at Pim1 kinase is less than 1 µM; at Pim3 kinase, less than 1 µM; on Pim2 kinase it was less than 1 µM; against KDR kinase, 10 to 25 µM; in experiment [1], 1 to 10 µM.
For `Nc1ccc(-c2ccccc2Cl)nc1C(=O)Nc1cnccc1N1CCC[C@H](N)C1` [Example 433, 3-amino-6-(2-chloro-phenyl)-pyridine-2-carboxylic acid ((S)-3-amino-3,4,5,6-tetrahydro-2H-[1,4′]bipyridinyl-3′-yl)-amide], the EC50 in the experiment on HEL 92.1.7 cells is 1 to 5 µM; in the experiment with MV4-11 cells (setting [4]) it was less than 1 µM. Further, the IC50 is less than 1 µM on Pim1 kinase; less than 1 µM on Pim3 kinase; less than 1 µM on Pim2 kinase; 10 to 25 µM at KDR kinase; 1 to 10 µM in experiment [1].
Regarding `Nc1ccc(-c2ccccc2F)nc1C(=O)Nc1cnccc1N1CCC[C@H](N)C1` [Example 434, 3-amino-6-(2-fluoro-phenyl)-pyridine-2-carboxylic acid ((S)-3-amino-3,4,5,6-tetrahydro-2H-[1,4′]bipyridinyl-3′-yl)-amide], the results for the EC50 with HEL 92.1.7 cells and in the experiment on MV4-11 cells (setting [4]) were 1 to 5 µM and less than 1 µM, respectively.
